Source: US20160262394A1, “COMPOSITION COMPRISING AN ACTIVE AND A GRAFT COPOLYMER MADE OF N-VINYLLACTAM, VINYL ESTER, AND AN ALCOHOL ALKOXYLATE” (BASF SE, priority 2013, published 2016)
Values after ≈ are worked out from the molar mass of the structure shown. One block for each compound: values may come before it.

Assays:
[1] = Solubilization of active in 3 wt % polymer solution (high-throughput robot, UV/VIS); assay type: physicochemical
Method: Solubilization measurements were carried out with a highthroughput screening robot. This setup dosed 10 mg solid active and […] of the respective 3 wt % liquid polymer solution (in Cl-PAC water D) into wells on a micro titer plate. After the addition of stirring bars and 24 hours incubation time the samples were filtrated via polypropylene filters in order to separate dissolved active and its solid formatted. The amount of solubilized active was determined via UV/VIS spectroscopy.

[2] = at 20° C.; cited from earlier work

SMILES: NC(=O)N1c2ccccc2C=Cc2ccccc21 [cabamazepine]
Solubility of cabamazepine ([1]; Active without polymer): 181 ppm

Solubility of Xemium ® (fluxapyroxad) ([1]; Active without polymer): 10 ppm
SMILES: Cn1cc(C(=O)Nc2ccccc2-c2cc(F)c(F)c(F)c2)c(C(F)F)n1 [fluxapyroxad]
water solubility [2]: 4 µg/mL (≈ 10.5 µM)

SMILES: N#Cc1nn(-c2c(Cl)cc(C(F)(F)F)cc2Cl)c(N)c1[S+]([O-])C(F)(F)F (centres unmarked) [fipronil]
Solubility of fipronil [1]: 12 ppm

SMILES: CC(O)(Cn1cncn1)c1ccc(Oc2ccc(Cl)cc2)cc1C(F)(F)F (centres unmarked) [2-[4-(4-chlorophenoxy)-2-(trifluoromethyl)phenyl]-1-(1H-1,2,4-triazol-1-yl)propan-2-ol]
Solubility of the triazole fungicide 2-[4-(4-chlorophenoxy)-2-(trifluoromethyl)phenyl]-1-(1H-1,2,4-triazol-1-yl)propan-2-ol ([1]; Active without polymer): 15 ppm
